# Laboratory results reported in a melting point compilation (Tetko et al.; mined from patent text by program, amines drawn as free bases though some values may be those of a salt).
row,melting point,SMILES
1,132 °C,c1cn(-c2ccc3nc(-c4ccc5c(c4)OCCO5)ncc3c2)cn1
2,111 to 115 °C,CCOC(=O)Cc1nn(Cc2nc(-c3ccccc3C(F)(F)F)no2)c(=O)c2ccccc12
3,293 to 294 °C,Cc1nc(NC(=O)c2cnn3c(C4CC4)cc(-c4ccc(Cl)cc4)nc23)sc1S(=O)(=O)NC(C)(C)CO
4,136 °C,Cc1cc(-n2ccnc2)c2cccc(OCc3c(Cl)ccc(S(=O)(=O)N4CCC[C@H]4C(=O)N4CCN(c5ccncc5)CC4)c3Cl)c2n1
5,236 to 238 °C,C(=C\c1cc(/C=C/c2ccc3cc[nH]c3c2)[nH]n1)/c1ccc(N2CCOCC2)cc1
6,118 °C,CC1(C)CCCC=C1c1ccc(C(=O)N2Cc3cccn3Cc3ccccc32)cc1
7,202 to 205 °C,O=C(Nc1ccc(Br)c(C(F)(F)F)c1)c1cccnc1NCn1ccccc1=O
8,120 °C,COc1ccccc1N1CCN(CC(O)COc2cccc3c2CCCC3=O)CC1 (configuration not stated)
9,152 to 153 °C,COc1cc(OC)c2c(C)c(CCN3CCN(c4ccccc4F)CC3)c(=O)oc2c1
10,210 to 211 °C,CCc1c(NC(=O)c2cc3c(s2)CCCC3)cccc1-c1cc(N)c(=O)n(C)c1
11,170 to 171 °C,O=C(O)Cc1cccc2c(-c3ccc(F)cc3)onc12
12,122 to 125 °C,CC(C)N(Cc1ccccc1)c1ncnc2c(N3CCOCC3)nc(N3CCC(N(C)C)CC3)nc12
13,124 to 125 °C,Cc1cccc(Cl)c1Nc1ccccc1CC(=O)O

# The remaining lines, values behind:
row,SMILES,melting point
1,CCCCCCCCCCCC#Cc1cnccc1C=CC(=O)O,177 to 178 °C
2,NC(=O)c1cc2ccccc2cc1O,216 to 217 °C
3,CCCSc1nc2ccc(Br)cc2c(=O)n1CCC,65 to 67 °C
4,CCN(CC)CCNC(=O)c1cc(Cl)c(N)cc1OCC(OC)OC,64 to 67 °C
5,O=C(C=Cc1ccc(COc2ccccc2)cc1)NC(Cc1ccccc1)C(=O)O (configuration not stated),205 °C
6,Cc1ccc(C(=O)c2ccc(F)cc2)nc1,127 to 128 °C
7,CC(C)(C)OC(=O)CN1CCN(c2ccnc(C#N)c2)C1=O,139 to 140 °C
8,NCc1cc2c(N)nccc2o1,142 to 144 °C
9,NC(=O)N(O)CCNC(=O)c1cccc(OCc2ccccc2)c1,183 to 185 °C
10,O=C(O)COc1cc(Cl)ccc1C(=O)NCc1cc(F)cc(C(F)(F)F)c1,160 to 162 °C
11,CCc1nnc2c(OC)nc3cc(OC)ccc3n12,184 to 188 °C
12,CCc1nnc2c(NC(C)C)nc3ccccc3n12,222 to 224 °C
13,O=C1OCc2cc(C(F)(F)F)ccc21,71 to 72 °C
14,CCNC(=S)NC1CCC(=O)c2ccccc21 (configuration not stated),134 to 138 °C
15,O=C(Cc1ccc(Cl)c(Cl)c1)N1CCN2CCCC[C@@H]21,102 to 104 °C
16,CC12CCC3C(CCC4CC(O)CCC43C)C1CCC2=S (configuration not stated),172 to 173 °C
17,O=[N+]([O-])c1cc(-c2cnc3ccccn23)cc(O)c1O,110 °C
18,Cc1ccc(C)c(-c2nsc3ccccc23)c1,87 °C
19,CCOC(=O)c1ccc(C=C(C)c2ccc3c(c2)SCCC3(C)C)cc1,64 to 65 °C
20,O=[N+]([O-])c1ccc2nc(Cl)c(Cc3ccccc3)cc2c1,159 to 161 °C
21,Oc1cccc(NCCc2ccccc2)n1,97 to 99 °C
22,CCNC(=O)NCCCN1C(=Nc2ccc3c(c2)OCO3)CSC1c1ccccc1OC (configuration not stated),134 to 136 °C
23,CCC1CN(c2c(F)cc3c(=O)c(C(=O)O)cn(C4CC4F)c3c2OC)CC1(C)N (configuration not stated),113 to 115 °C
24,COc1ccc(N)c2c1oc1ccccc12,167 to 169 °C
25,COc1cc2nc(N)nc(-c3cc(Br)c(C)cc3Br)c2cc1OC,282 to 284 °C
26,Cn1c(CO)nc2cccnc21,229 to 231 °C
27,CCOC(=O)Cc1csc(N=C2SC[C@@H]3Cc4ccccc4CN23)n1,105 °C
28,CO[C@H]1CC[C@H](N(C)C(=O)c2ccc3nonc3c2)CC1,143 to 144 °C
29,COC(=O)c1cnc(Cl)c(Br)c1,78 to 79 °C
